Experimental data reported in US20100226853A1 (priority 2007, published 2010).
Like-named read-outs stand apart in the source and are kept apart here.

Experiments:
[1] = Protein binding assay, serum; format: in vitro ADME; settings: fresh human serum
Description: (§1) Protein binding of the radiotracers were determined adding 37 kBq (1 μCi) of each radioligand to samples of 1% bovine serum albumin and 1 mL of fresh human serum. The protein was precipitated by adding 1 mL of ice cold 20% trichloroacetic acid and the suspension centrifuged and washing with 1 mL of 20% ice cold trichloroacetic acid. The protein pellets and supernatants were counted in a gamma counter to determine the protein binding of the radioligands.

SRC = SRC (Homo sapiens, UniProt P12931); format: biochemical; settings: read-out: IC50, Src protein
Chain of SRC (P12931 whole entry): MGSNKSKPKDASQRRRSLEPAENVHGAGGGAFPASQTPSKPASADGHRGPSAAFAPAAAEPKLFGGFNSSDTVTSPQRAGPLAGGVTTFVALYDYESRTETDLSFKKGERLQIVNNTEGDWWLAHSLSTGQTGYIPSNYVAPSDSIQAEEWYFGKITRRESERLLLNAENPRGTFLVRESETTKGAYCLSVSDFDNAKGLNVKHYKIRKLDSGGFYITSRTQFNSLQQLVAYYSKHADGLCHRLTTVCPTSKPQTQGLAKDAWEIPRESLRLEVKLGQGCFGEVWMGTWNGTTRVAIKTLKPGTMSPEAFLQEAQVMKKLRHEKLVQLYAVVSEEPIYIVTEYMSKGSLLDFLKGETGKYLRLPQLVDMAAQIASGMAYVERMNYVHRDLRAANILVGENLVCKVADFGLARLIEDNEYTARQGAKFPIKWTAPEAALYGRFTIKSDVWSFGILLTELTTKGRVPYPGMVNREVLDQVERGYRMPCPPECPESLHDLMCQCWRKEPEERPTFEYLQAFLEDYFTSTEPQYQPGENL
Description: (§2) Kinase was preincubated with inhibitor at 37° C. for 10 min prior to starting the reaction upon addition of ATP; Assay was carried out in 384 well clear plates (Corning) and absorbance was measured on SpectraMax plate reader (Molecular Devices). Reaction rates were plotted against inhibitor concentration and fitted using SigmaPlot 9.0 (Systat Software Inc.).

[2] = Octanol/water partition coefficient determination; format: physicochemical; settings: n-octanol/water
M07e cells = experiment: Cellular proliferation, [3H]thymidine uptake, Kit ligand dependent growth; format: cell-based; settings: Homo sapiens, M-07e, read-out: IC50, M07e cells proliferation
Description: The immortalized human hematopoietic Philadelphia chromosome-positive cytokine independent R10(−) M07e^p210 cell line (46) was maintained in Iscove's modified Dulbecco's medium (Life Technologies, Inc., Grand Island, N.Y.) containing 10% FCS (Hyclone, Logan, Utah). The parental M07e megakaryoblastic cell line was a kind gift of Brian Druker and was maintained in the presence of 50 ng/mL kit ligand (SCF) as described (46-47) K562 was obtained from the ATCC. K562 was maintained in suspension in 90% RPMI 1640 medium supplemented with 10% FBS, 2 mM L-glutamine, 10 mM HEPES, 1 mM sodium pyruvate, 1.5 g/L sodium bicarbonate, 4.5 g/L […], 10% FBS, 100 IU/mL penicillin and 100 μg/ml streptomycin. Tumor cell cultures were maintained in a humidified atmosphere with 5% CO2 at 37° C. (NuAire).
. Data points for all assays were obtained in triplicate, and background incorporation from cell-free wells was determined and subtracted from all data points. The data was analyzed using a non-linear regression fit to a sigmoidal dose-response curve using Prism 4 (GraphPad Software, Inc).

1% bovine serum albumin = molecular target: T1, 1% bovine serum albumin (Bos taurus, UniProt P02769); experiment: Protein binding assay, BSA; format: in vitro ADME
T1 construct: from tissue; host or cells: bovine serum (from the protein's name)
Description: as §1

B6D2F1 mice = experiment: Acute toxicity in mice; format: in vivo; settings: for toxicity in mice: 0.1 mg/kg intravenously, single dose, 14 days observation
Source text: Each group contained three mice. […] There were five males and five females in either control or treatment group. […] Mice were sent for pathology, including complete blood cell count, complete chemistry panel and complete necropsy. Two intact male mice and two intact female mice were also sent and used as references.

KDR = molecular target: T2, KDR (Homo sapiens, UniProt P35968); experiment: QuickScout ELISA kinase panel; format: biochemical; settings: Compound 5 at 10 nM; negative = enhanced phosphorylation
T2 construct: purchased Carna Biosciences (Kobe, Japan), QuickScout service
Source text: (§3) An ELISA-based assay was used in which the phosphorylation of an oligopeptide substrate was detected by an HRP-conjugated anti-p-Tyr (PY20) probe.

KIT = molecular target: T3, KIT (Homo sapiens, UniProt P10721); experiment: QuickScout ELISA kinase panel; format: biochemical
T3 construct: purchased Carna Biosciences (Kobe, Japan), QuickScout service
T3 sequence (P10721 26-976): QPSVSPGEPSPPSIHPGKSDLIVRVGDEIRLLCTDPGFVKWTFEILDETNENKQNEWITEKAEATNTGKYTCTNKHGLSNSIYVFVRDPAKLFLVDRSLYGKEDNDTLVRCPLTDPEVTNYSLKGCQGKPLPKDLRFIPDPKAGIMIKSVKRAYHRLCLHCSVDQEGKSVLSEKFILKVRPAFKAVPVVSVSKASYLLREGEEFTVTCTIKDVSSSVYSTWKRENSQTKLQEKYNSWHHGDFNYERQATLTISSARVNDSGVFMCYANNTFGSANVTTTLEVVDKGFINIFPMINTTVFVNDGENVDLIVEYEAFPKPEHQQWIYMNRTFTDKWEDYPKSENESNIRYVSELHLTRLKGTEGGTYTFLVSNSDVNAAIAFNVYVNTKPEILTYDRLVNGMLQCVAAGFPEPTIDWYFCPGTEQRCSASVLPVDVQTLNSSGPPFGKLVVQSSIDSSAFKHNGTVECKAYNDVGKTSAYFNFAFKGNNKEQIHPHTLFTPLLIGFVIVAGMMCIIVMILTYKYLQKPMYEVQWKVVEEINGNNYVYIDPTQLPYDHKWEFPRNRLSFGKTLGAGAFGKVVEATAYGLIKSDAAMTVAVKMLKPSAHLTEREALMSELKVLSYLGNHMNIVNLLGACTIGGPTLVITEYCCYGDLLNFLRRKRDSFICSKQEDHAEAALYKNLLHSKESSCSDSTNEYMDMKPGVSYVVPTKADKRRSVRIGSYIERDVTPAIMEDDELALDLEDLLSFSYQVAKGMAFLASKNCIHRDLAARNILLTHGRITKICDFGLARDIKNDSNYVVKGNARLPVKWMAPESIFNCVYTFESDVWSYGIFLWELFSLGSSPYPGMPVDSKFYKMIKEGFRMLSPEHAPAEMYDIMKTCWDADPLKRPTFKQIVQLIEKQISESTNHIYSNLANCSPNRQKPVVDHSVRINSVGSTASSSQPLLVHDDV
Source text: as §3

EGFR = molecular target: T4, EGFR (Homo sapiens, UniProt P00533); experiment: QuickScout ELISA kinase panel; format: biochemical; settings: Compound 5 at 10 nM
T4 construct: purchased Carna Biosciences (QuickScout service)
Source text: as §3

TRKA = molecular target: T5, TRKA (Homo sapiens, UniProt P04629); experiment: QuickScout ELISA kinase panel; format: biochemical; settings: Compound 5 at 10 nM; negative = enhanced phosphorylation
T5 construct: purchased Carna Biosciences (Kobe, Japan), QuickScout service
Source text: as §3

FGFR1 = molecular target: T6, FGFR1 (Homo sapiens, UniProt P11362); experiment: QuickScout ELISA kinase panel; format: biochemical; settings: Compound 5 at 10 nM
T6 construct: purchased Carna Biosciences (QuickScout service)
Source text: as §3

SYK = molecular target: T7, SYK (Homo sapiens, UniProt P43405); experiment: QuickScout ELISA kinase panel; format: biochemical; settings: read-out: % Inhibition of Kinase Activity, SYK
T7 construct: purchased Carna Biosciences (Kobe, Japan), QuickScout service
Source text: as §3

IGF1R = molecular target: T8, IGF1R (Homo sapiens, UniProt P08069); experiment: QuickScout ELISA kinase panel; format: biochemical; settings: Compound 5 at 10 nM
T8 construct: purchased Carna Biosciences (QuickScout service)
T8 sequence (P08069 31-1367): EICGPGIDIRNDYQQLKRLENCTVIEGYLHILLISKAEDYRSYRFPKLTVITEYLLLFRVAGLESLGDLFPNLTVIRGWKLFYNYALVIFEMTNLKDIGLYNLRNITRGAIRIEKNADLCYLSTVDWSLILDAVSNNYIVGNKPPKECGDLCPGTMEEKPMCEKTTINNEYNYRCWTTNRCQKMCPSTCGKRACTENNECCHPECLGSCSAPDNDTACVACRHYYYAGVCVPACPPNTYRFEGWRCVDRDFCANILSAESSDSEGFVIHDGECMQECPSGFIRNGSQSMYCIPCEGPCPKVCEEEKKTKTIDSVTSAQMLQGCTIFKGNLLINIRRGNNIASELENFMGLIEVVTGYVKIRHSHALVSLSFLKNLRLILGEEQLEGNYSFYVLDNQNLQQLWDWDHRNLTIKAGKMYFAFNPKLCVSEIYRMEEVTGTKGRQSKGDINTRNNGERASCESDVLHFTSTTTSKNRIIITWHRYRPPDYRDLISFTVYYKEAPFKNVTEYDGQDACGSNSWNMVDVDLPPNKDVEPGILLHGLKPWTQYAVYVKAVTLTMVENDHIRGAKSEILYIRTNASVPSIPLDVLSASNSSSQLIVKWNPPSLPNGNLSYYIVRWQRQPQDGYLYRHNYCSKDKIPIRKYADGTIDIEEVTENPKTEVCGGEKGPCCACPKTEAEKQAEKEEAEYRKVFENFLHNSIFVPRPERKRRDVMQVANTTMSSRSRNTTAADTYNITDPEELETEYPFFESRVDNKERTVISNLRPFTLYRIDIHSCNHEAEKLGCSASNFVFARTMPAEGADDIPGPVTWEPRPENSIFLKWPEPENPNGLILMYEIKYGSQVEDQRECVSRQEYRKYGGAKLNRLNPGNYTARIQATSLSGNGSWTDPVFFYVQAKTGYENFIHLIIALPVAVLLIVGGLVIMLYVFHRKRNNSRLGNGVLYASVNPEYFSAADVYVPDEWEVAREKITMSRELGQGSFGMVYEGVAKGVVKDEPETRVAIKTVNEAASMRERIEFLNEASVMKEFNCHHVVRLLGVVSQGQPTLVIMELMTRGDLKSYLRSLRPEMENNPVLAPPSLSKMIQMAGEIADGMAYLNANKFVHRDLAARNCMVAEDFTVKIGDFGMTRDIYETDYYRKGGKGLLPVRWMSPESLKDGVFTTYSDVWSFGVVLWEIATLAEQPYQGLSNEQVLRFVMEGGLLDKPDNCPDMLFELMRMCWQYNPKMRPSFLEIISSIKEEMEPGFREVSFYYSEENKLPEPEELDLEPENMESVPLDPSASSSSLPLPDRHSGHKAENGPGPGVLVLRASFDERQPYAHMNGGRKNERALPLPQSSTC
Source text: as §3

TIE2 = molecular target: T9, TIE2 (Homo sapiens, UniProt Q02763); experiment: QuickScout ELISA kinase panel; format: biochemical; settings: Compound 5 at 10 nM; negative = enhanced phosphorylation
T9 construct: purchased Carna Biosciences (Kobe, Japan), QuickScout service
T9 sequence (Q02763 23-1124): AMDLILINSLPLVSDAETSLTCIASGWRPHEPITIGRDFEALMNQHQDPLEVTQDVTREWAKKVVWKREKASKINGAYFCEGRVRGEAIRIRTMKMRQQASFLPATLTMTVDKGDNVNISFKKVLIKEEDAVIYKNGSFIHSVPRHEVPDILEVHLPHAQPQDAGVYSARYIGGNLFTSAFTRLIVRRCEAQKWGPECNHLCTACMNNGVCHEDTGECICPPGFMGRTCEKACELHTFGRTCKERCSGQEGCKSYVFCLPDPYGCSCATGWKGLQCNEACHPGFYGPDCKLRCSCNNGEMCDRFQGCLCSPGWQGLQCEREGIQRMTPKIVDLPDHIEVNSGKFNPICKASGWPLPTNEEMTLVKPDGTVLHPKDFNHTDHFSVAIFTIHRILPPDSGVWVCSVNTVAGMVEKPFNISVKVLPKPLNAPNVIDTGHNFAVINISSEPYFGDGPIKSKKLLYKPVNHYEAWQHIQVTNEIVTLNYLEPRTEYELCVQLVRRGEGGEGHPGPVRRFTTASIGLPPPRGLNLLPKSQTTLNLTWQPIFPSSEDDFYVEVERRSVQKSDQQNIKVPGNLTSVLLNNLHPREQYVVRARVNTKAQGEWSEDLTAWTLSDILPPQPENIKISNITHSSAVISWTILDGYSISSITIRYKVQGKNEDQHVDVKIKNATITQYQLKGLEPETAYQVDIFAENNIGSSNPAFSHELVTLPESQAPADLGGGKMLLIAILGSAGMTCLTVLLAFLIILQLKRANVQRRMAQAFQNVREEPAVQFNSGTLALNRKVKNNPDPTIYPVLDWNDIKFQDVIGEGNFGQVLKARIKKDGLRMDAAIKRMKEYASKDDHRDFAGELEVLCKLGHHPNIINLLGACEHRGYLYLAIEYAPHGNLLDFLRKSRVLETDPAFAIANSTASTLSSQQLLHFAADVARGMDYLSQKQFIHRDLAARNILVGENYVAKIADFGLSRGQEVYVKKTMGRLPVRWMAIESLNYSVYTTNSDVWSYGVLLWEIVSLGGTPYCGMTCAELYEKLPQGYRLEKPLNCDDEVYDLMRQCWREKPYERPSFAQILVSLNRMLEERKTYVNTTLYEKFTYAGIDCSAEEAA
Source text: as §3

FAK = molecular target: T10, FAK (Homo sapiens, UniProt Q05397); experiment: QuickScout ELISA kinase panel; format: biochemical; settings: read-out: % Inhibition of Kinase Activity, FAK
T10 construct: purchased Carna Biosciences (QuickScout service)
Source text: as §3

ABL [3] = molecular target: T11, ABL (Homo sapiens, UniProt P00519); experiment: QuickScout ELISA kinase panel; format: biochemical; set-up: purchased Carna Biosciences (QuickScout service)
T11 sequence (P00519 whole entry): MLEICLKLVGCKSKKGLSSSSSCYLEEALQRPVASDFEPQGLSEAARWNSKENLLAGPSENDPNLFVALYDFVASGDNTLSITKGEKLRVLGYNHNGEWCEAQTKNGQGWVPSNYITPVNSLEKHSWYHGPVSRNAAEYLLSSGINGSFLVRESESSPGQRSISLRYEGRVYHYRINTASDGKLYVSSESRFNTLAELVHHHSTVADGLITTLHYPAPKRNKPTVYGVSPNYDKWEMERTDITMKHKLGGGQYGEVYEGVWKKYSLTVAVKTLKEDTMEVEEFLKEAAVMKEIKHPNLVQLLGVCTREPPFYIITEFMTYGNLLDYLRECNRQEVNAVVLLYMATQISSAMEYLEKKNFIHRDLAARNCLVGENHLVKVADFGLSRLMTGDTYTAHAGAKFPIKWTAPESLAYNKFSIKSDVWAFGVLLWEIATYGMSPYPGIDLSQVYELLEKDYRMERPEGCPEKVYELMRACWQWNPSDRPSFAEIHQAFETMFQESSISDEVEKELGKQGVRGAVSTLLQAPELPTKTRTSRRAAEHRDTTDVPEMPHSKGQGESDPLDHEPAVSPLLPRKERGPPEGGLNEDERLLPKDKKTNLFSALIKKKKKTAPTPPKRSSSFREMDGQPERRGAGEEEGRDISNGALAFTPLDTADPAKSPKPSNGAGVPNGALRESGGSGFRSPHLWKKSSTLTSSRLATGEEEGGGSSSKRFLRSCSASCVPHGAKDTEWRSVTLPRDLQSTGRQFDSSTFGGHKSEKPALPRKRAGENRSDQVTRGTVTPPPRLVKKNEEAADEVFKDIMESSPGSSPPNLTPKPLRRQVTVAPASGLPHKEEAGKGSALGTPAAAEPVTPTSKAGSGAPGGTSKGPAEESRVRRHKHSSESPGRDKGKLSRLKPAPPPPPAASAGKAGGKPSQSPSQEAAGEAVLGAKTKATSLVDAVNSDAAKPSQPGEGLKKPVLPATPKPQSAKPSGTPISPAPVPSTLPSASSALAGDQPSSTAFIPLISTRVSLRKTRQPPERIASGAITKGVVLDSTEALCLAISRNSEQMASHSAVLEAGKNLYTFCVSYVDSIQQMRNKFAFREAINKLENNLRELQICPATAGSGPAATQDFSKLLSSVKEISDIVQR
Source text: as §3

ABL [4] = molecular target: T11, ABL; format: biochemical; set-up: purchased Invitrogen; settings: mean of three experiments; read-out: IC50, Abl protein
Description: as §2

K562 cells = experiment: Cellular proliferation, [3H]thymidine uptake; format: cell-based; settings: Homo sapiens, K562, read-out: IC50, K562 cells proliferation
Description: (§4) The immortalized human hematopoietic Philadelphia chromosome-positive cytokine independent R10(−) M07e^p210 cell line (46) was maintained in Iscove's modified Dulbecco's medium (Life Technologies, Inc., Grand Island, N.Y.) containing 10% FCS (Hyclone, Logan, Utah). The parental M07e megakaryoblastic cell line was a kind gift of Brian Druker and was maintained in the presence of 50 ng/mL kit ligand (SCF) as described (46-47) K562 was obtained from the ATCC. […] Tumor cell cultures were maintained in a humidified atmosphere with 5% CO2 at 37° C. (NuAire).
(§5) Data points for all assays were obtained in triplicate, and background incorporation from cell-free wells was determined and subtracted from all data points. The data was analyzed using a non-linear regression fit to a sigmoidal dose-response curve using Prism 4 (GraphPad Software, Inc).

[5] = tested on: R10 neg cells (MO7e/p210^bcr-abl); experiment: Cellular proliferation, [3H]thymidine uptake; format: cell-based; settings: Homo sapiens, read-out: IC50, R10 neg cells (MO7e/p210^bcr-abl) proliferation
Description: as §4, §5

[6] = 0.1 mg/kg i.v., 14 days, average, same in control group

## Cc1nc(Nc2ncc(C(=O)Nc3c(C)cccc3Cl)s2)cc(N2CCN(CCF)CC2)n1 [Compound 5, N-(2-Chloro-6-methylphenyl)-2-(6-(4-(2-fluoroethyl)piperazin-1-yl)-2-methylpyrimidin-4-ylamino)thiazole-5-carboxamide]
[1]
  protein bound in serum: 98.5±1.0%
SRC
  IC50: 3.5 ± 2.2 nM
[2]
  logD at 2 h: 2.1 ± 0.6
M07e cells
  IC50: 1.1 nM
1% bovine serum albumin
  protein bound in 1% BSA: 99.0±0.3%
B6D2F1 mice; [6]
  body weight gain, female mice: 0.5 g
  body weight gain, male mice: 1.8 g
B6D2F1 mice
  toxicity in mice: has not shown toxicity
B6D2F1 mice; listed as fluoro derivative 5
  toxicity in mice: safe and nontoxic
KDR
  inhibition at 0.01 µM: -5.6%
KIT
  IC50: < 2 nM
KIT; Compound 5 at 10 nM
  inhibition at 0.01 µM: > 97%
KIT; Compound 5 at 10 nM, 0.01 µM
  % Inhibition of Kinase Activity, KIT: 98.7%
EGFR
  inhibition at 0.01 µM: 27.2%
TRKA
  inhibition at 0.01 µM: -0.9%
FGFR1
  inhibition at 0.01 µM: 20.4%
SYK
  inhibition at 0.01 µM: 4.5%
IGF1R
  inhibition at 0.01 µM: 5.9%
TIE2
  inhibition at 0.01 µM: -51.7%
FAK
  inhibition at 0.01 µM: -18.3%
ABL [3]
  IC50: < 2 nM
ABL [3]; Compound 5 at 10 nM
  inhibition at 0.01 µM: > 97%
ABL [3]; Compound 5 at 10 nM, 0.01 µM
  % Inhibition of Kinase Activity, ABL: 99.4%
ABL [4]
  IC50: 9.1 ± 0.8 nM
K562 cells
  IC50: 1.1 nM
[5]
  IC50: 0.1 nM
